# Target: T1, GRK2 (Homo sapiens, UniProt P25098)
# T1 construct: purchased SignalChem A14-10G
# T1 sequence (P25098 1-689): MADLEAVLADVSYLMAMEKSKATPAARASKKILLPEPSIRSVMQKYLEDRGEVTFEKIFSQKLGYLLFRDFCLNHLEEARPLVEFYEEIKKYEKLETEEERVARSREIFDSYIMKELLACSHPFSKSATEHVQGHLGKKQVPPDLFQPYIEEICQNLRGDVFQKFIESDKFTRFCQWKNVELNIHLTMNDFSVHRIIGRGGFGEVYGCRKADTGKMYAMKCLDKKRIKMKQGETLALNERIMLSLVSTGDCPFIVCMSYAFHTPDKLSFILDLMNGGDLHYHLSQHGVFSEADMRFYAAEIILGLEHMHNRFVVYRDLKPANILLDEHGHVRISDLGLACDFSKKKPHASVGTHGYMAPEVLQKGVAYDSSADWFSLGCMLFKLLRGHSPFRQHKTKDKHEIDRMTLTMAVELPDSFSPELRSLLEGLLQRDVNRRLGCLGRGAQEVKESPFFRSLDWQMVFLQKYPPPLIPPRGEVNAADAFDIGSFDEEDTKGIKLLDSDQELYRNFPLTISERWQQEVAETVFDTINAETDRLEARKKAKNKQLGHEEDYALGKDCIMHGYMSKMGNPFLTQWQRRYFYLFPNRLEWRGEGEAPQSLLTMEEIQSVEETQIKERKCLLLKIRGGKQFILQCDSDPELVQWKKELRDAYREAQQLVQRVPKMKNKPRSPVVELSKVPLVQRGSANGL
# Assay: ADPGlo GRK2 Inhibition Assay (Example 8)
# Assay type: biochemical
# Details: 7.5 nM GRK2, 10 μM ATP, ADP-Glo; read-out: GRK2 IC50 (nM) (Example 8)
# Method: HTS was performed using 1 μM compound.
# Compounds were dissolved in 100% DMSO, serially diluted tree-fold from 100 μM concentration to 46 nM and transferred (50 nL) into assay ready plate.
# Materials: GRK2 was purchased from SignalChem (Cat #A14-10G, Lot #X^645-3). Substrate GRKtide was from SignalChem (Cat #G46-58, Lot #R339-6). ADP-Glo Kinase Assay from Promega (Cat #V9102). Assay buffer consisted of 25 mMv HEPES (pH7.5), 10 mMv MgCl2, 0.01% Tween-20, 1 mM DDT. 384-well white plates were from Greiner […] (Item #784075).
# HTS protocol: Take 384 well plate with 50 nL of compound in columns 3-22/DMSO solution 1-2,23-24. Add 2.5 μL assay buffer to columns 23 and 24 using Thermo Scientific Multidrop Combi Dispenser. Add 2.5 μL of 2× enzyme solution (15 nM in 1× assay buffer) using Thermo Scientific Multidrop Combi Reagent Dispenser to all columns except of 23 and 24. Incubate for 15 minutes. Fill plate with 2.5 μL of 2× substrate mix (20 μM ATP and 0.6 mg/nt GRKtide in Ix assay buffer) using Thermo Scientific Multidrop Combi Reagent Dispenser. Spin 15 seconds at 1000 rpm and incubate for 180 min at room temperature. Add 5 μL ADP-Glo reagent to all the wells. Spin 15 seconds at 1000 rpm and incubate for 40 min at room temperature. Add 10 μL Detection solution to all the wells. Incubate for 30 min at room temperature. Read plate in Luminescent modeon BMG PheraStar FSX (gain=3600).
# Data Analysis: Data were analyzed in GraphPad Prism 8.0.2. Each HTS plate contains compounds in columns 3-22, controls (enzyme, no compound) in columns 1 and 2, and blanks (no enzyme) in columns 23 and 24. HTS percent inhibition was calculated for each compound from the signal in luminescence units and the mean of the plate controls and the mean of the plate blanks using the following equation: % Inhibition=100*(1−((signal-blank mean)/(control mean-blank mean))). At the final stage of data processing, we obtain dose-response curves, tables and SDF-files with the results of screening for each substance.
row,IC50 [nM],Structure (SMILES)
1,5.4,COc1cccc(C(CO)NC(=O)c2cccc(NCc3nnc(-c4ccncn4)n3C)c2)c1 (stereo not shown) [compound 49]
2,14,Cc1cccnc1CNC(=O)c1cccc(NCc2nnc(-c3ccncn3)n2C)c1 [compound 11]
3,2.1,Cn1c(CNc2cccc(C(=O)NCc3ccc(-n4nccn4)cc3)c2)nnc1-c1ccncn1 [compound 42]
4,22,Cn1c(CNc2cccc(C(=O)N[C@@H]3COCc4ccccc43)c2)nnc1-c1ccncn1 [compound 31]
5,3,Cc1ccn2c(CNC(=O)c3cccc(NCc4nnc(-c5ccncn5)n4C)c3)cnc2c1 [compound 45]
6,5.7,Cn1nccc1CNC(=O)c1cccc(NCc2nnc(-c3ccncn3)n2C)c1 [compound 51]
7,9.5,Cn1cccc1CNC(=O)c1cccc(NCc2nnc(-c3ccncn3)n2C)c1 [compound 59]
8,15,COc1cccc2c1CC[C@H]2NC(=O)c1cccc(NCc2nnc(-c3ccncn3)n2C)c1 [compound 30]
9,6.2,CCS(=O)(=O)c1ccc(CNC(=O)c2cccc(NCc3nnc(-c4ccncn4)n3C)c2)cc1 [compound 53]
10,67,CCC[C@H](NC(=O)c1cccc(NCc2nnc(-c3ccncn3)n2C)c1)c1ccccn1 [compound 21]
11,10,Cn1c(CNc2cccc(C(=O)NC(CO)c3cc(F)ccc3F)c2)nnc1-c1ccncn1 (stereo not shown) [compound 62]
12,10,Cn1ccnc1[C@@H](NC(=O)c1cccc(NCc2nnc(-c3ccncc3)[nH]2)c1)C1CC1 [compound 34]
13,3.3,Cc1ccc(C(CO)NC(=O)c2cccc(NCc3nnc(-c4ccncn4)n3C)c2)cc1 (stereo not shown) [compound 46]
14,7.3,Cn1c(CNc2cccc(C(=O)NC3c4ccccc4CC3O)c2)nnc1-c1ccncn1 (stereo not shown) [compound 56]

# Same assay, conditions: ADPGlo GRK2 enzyme assay; read-out: A: Enzymatic GRK2: IC50 (nM) (Example 8)
row,IC50 [nM],Structure (SMILES)
1,732,CCCCCOc1ccc2c(c1)[C@H](NC(=O)c1cccc(NCc3nnc(-c4ccncn4)n3C)c1)CCO2
2,505,Cc1ccccc1C(CN1CCOCC1)NC(=O)c1cccc(NCc2nnc(-c3ccncn3)n2C)c1 (stereo not shown)
3,318,Cn1c(CNc2cccc(C(=O)NCc3ncccc3-n3cccn3)c2)nnc1-c1ccncn1
4,108,Cc1ncc2c(n1)CCCC2NC(=O)c1cccc(NCc2nnc(-c3ccncn3)n2C)c1 (stereo not shown)
5,423,Cn1c(CNc2cccc(C(=O)N[C@]3(c4ccccc4F)C[C@H](O)C3)c2)nnc1-c1ccncn1
6,182,Cc1ccc(CNC(=O)c2cccc(NCc3nnc(-c4ccncn4)n3C)c2)nc1C
7,85,CN1CC[C@H](NC(=O)c2cccc(NCc3nnc(-c4ccncn4)n3C)c2)c2ccccc21
8,177,Cn1c(CNc2cccc(C(=O)NC(CO)c3ccccn3)c2)nnc1-c1ccncn1 (stereo not shown)
9,732,CC(Cc1nccn1C)NC(=O)c1cccc(NCc2nnc(-c3ccncn3)n2C)c1 (stereo not shown)
10,283,Cn1c(CNc2cccc(C(=O)NC3(CO)CCOc4ccccc43)c2)nnc1-c1ccncn1 (stereo not shown)
11,172,Cn1c(CNc2cccc(C(=O)NCc3ncccc3S(C)(=O)=O)c2)nnc1-c1ccncn1
12,748,Cn1c(CNc2cccc(C(=O)NC3(c4ncc[nH]4)CC3)c2)nnc1-c1ccncn1
13,103,Cn1c(CNc2cccc(C(=O)NCc3cc(Br)cnc3O)c2)nnc1-c1ccncn1
14,52.8,Cn1c(CNc2cccc(C(=O)NCc3ccccc3S(=O)(=O)N3CCOCC3)c2)nnc1-c1ccncn1
15,136,Cn1c(CNc2cccc(C(=O)NCc3ccccc3CN3CCC(O)C3)c2)nnc1-c1ccncn1 (stereo not shown)
16,31.9,Cn1c(CNc2cccc(C(=O)NCc3ccncc3Cl)c2)nnc1-c1ccncc1F
17,142,Cn1c(CNc2cccc(C(=O)NC3CNCCc4ccccc43)c2)nnc1-c1ccncn1 (stereo not shown)
18,651,Cn1c(CNc2cccc(C(=O)NC3(CO)CCCc4ccccc43)c2)nnc1-c1ccncn1 (stereo not shown)
19,118,Cn1c(CNc2cccc(C(=O)NCc3ccc(O)c(F)c3)c2)nnc1-c1ccncn1

row,IC50 [nM],Structure (SMILES)
1,412,Cc1ccc(CNC(=O)c2cccc(NCc3nnc(-c4ccncn4)n3C)c2)c(N2CCOCC2)c1
2,104,Cn1c(CNc2cccc(C(=O)NC3(c4ncccc4F)CC3)c2)nnc1-c1ccncn1
3,107,Cn1c(CNc2cccc(C(=O)NCc3ccccc3CS(=O)(=O)N3CCCC3)c2)nnc1-c1ccncn1
4,18.7,Cn1c(CNc2cc(C(=O)N[C@@H]3COCc4ccccc43)ccn2)nnc1-c1ccncn1
5,15.1,CNS(=O)(=O)c1cccc(F)c1CNC(=O)c1ccnc(NCc2nnc(-c3ccncn3)n2C)c1
6,104,Cn1c(CNc2cccc(C(=O)NCc3cc(F)ccc3N3CCOCC3)c2)nnc1-c1ccncn1
7,119,Cn1c(CNc2cccc(C(=O)NCc3cccnc3-n3cncn3)c2)nnc1-c1ccncn1
8,312,Cc1cccnc1CNC(=O)c1cccc(NCc2nnc(-c3ccncc3F)n2C)c1
9,550,CCCCCOc1ccc2c(c1)[C@H](NC(=O)c1cccc(NCc3nnc(-c4ccncn4)n3C)c1)CO2
10,37.5,Cn1c(CNc2cc(C(=O)N[C@@H]3COc4cc(F)ccc43)ccn2)nnc1-c1ccncn1
11,> 1000,Cn1c(CNc2cccc(C(=O)NC3CCCc4c3ccc(=O)n4C)c2)nnc1-c1ccncn1 (stereo not shown)
12,11.9,C[C@@H](NC(=O)c1cccc(NCc2nnc(-c3ccncc3)n2CCO)c1)c1ncccc1Cl
13,728,Cn1c(CNc2cccc(C(=O)NCc3nccnc3O)c2)nnc1-c1ccncn1
14,310,COc1ccc([C@H](C)NC(=O)c2cccc(NCc3nnc(-c4ccncn4)n3C)c2)c(OC)c1
15,68,CC(NC(=O)c1cccc(NCc2nnc(-c3ccncn3)n2C)c1)c1ccccc1NS(C)(=O)=O (stereo not shown)
16,526,Cn1c(CNc2cccc(C(=O)NCC3(c4ccccn4)CC3)c2)nnc1-c1ccncn1
17,929,Cn1c(CNc2cccc(C(=O)NC3(CO)CCc4ccccc43)c2)cnc1-c1ccncn1 (stereo not shown)
18,62.5,CNS(=O)(=O)c1ccccc1CNC(=O)c1cccc(NCc2nnc(-c3ccncn3)n2C)c1
19,511,Cn1c(CNc2cccc(C(=O)NC(C)(CO)c3ccccn3)c2)nnc1-c1ccncn1 (stereo not shown)

# Same assay, conditions: Enzyme Assay A, ADPGlo (Example 8); read-out: A: Enzymatic GRK2: IC50 (nM) (Example 8)
row,IC50 [nM],Structure (SMILES)
1,143,Cn1c(CNc2cccc(C(=O)N[C@@H]3COc4cc(F)ccc43)c2)nnc1-c1ccncc1
2,100,Cn1c(CNc2cccc(C(=O)NCc3nc4ccccc4[nH]3)c2)nnc1-c1ccncn1
3,580,Cc1cnc(CNC(=O)c2cccc(NCc3nnc(-c4ccncn4)n3C)c2)nc1
4,240,Cn1c(CNc2cccc(C(=O)NCc3ccc(S(C)(=O)=O)cn3)c2)nnc1-c1ccncn1
5,110,Cc1cc(CNC(=O)c2cccc(NCc3nnc(-c4ccncn4)n3C)c2)no1
6,210,CN(C)C[C@@H](NC(=O)c1cccc(NCc2nnc(-c3ccncn3)n2C)c1)c1ccccc1
7,100,CCS(=O)(=O)c1ccc(CNC(=O)c2cccc(NCc3nnc(-c4ccncn4)n3C)c2)nc1
8,15,Cc1cc(CNC(=O)c2cccc(NCc3nnc(-c4ccncn4)n3C)c2)c(C)n1-c1ccccc1
9,27,Cn1c(CNc2cccc(C(=O)NCc3cc(F)ccc3F)c2)nnc1-c1ccncn1
10,> 1000,COc1ccc2c(c1)[C@@H](NC(=O)c1cccc(NCc3nnc(-c4ccncn4)n3C)c1)CCO2
11,201,Cn1c(CNc2cccc(C(=O)N[C@@H]3COCc4ccccc43)c2)nnc1-c1ccncc1
12,140,Cn1c(CNc2cccc(C(=O)NCc3ccc(Br)cn3)c2)nnc1-c1ccncn1
13,15,COc1ccc(F)cc1CNC(=O)c1cccc(NCc2nnc(-c3ccncn3)n2C)c1
14,92,Cn1c(CNc2cccc(C(=O)NC3CCCOc4ccccc43)c2)nnc1-c1ccncn1 (stereo not shown)
15,100,Cc1csc(CNC(=O)c2cccc(NCc3nnc(-c4ccncn4)n3C)c2)n1 [drawing 283]

# — patent US20230009608A1, “GRK2 INHIBITORS AND USES THEREOF” (Cygnal Therapeutics, Inc., priority 2020, published 2023)
